The values below come from paper PMC6143625, “A high throughput screen for next-generation leads targeting malaria parasite transmission” (Nature Communications, 2018).

Assay [1] concerns HepG2 human cells. Also on record: method as in http://dx.doi.org/10.6019/CHEMBL3507680. To be noted: ref http://dx.doi.org/10.6019/CHEMBL3507680; cited from earlier work.
For assay [2], the system named is P. falciparum stage V male gametocytes (male gamete formation). The assay is described as follows: P. falciparum dual gamete formation assay (Pf DGFA), male readout (exflagellation), 48 h carry-over format. The class given is cell-based, Plasmodium falciparum NF54. To be noted: Plasmodium falciparum, 48 h incubation; for IC50: 48 h, dose response retest of primary hits, read-out: Male IC50; for inhibition at 2 µM: primary screen, single replicate.

For assay [3], the system named is P. falciparum stage V female gametocytes (female gamete formation). The assay is described as follows: P. falciparum dual gamete formation assay (Pf DGFA), female readout (Pfs25 expression), 48 h carry-over format. The format is cell-based, Plasmodium falciparum NF54. To be noted: Plasmodium falciparum, 48 h incubation; for IC50: 48 h, dose response retest of primary hits, read-out: Female IC50; for inhibition at 2 µM: primary screen, single replicate.

Assay [4] relates to P. falciparum 3D7 asexual blood stages. The assay is described as follows: Whole-cell time extended asexual growth assay (pLDH). The class given is cell-based. To be noted: Plasmodium falciparum, 72 h; for IC50: dose response retest, read-out: IC50 (µM) Asex stages; for inhibition at 2 µM: primary screen, read-out: %Inh Asex stages @2uM. The procedure:
Asexual activity was assayed via Plasmodium lactate dehydrogenase activity (pLDH), a surrogate of asexual parasite growth. […] 2 µM artesunate and DMSO were used as the positive and negative controls, respectively. […] After plate mixing, NBT reduction was measured by absorbance at 650 nm using Envision (Perkin Elmer).

The IC50 is the point on the concentration scale where inhibition reaches its midpoint. As for `COc1ccc(NC(=O)Cn2nc(C)c(C(C)=O)c2C)cc1` [DDD01027600], the “%Inh HepG2 @10uM” value in assay [1] is recorded as 2.67%. Further, the IC50 in assay [2] is 1.24 µM; in assay [3] it was 5.56 µM; in assay [4], 0.298 µM. In addition, the inhibition at 2 µM is 47.3% in assay [2], below 30% in assay [3] and 73.1% in assay [4].
As to `NCC1CCN(C2CCN(c3ccc(-c4ccco4)cc3)CC2)C1` (centres unmarked) [DDD01252361], the “%Inh HepG2 @10uM” value in assay [1] is listed as 101.96%. Also, the IC50 in assay [2] amounted to 1.12 µM; in assay [3], 3.62 µM; in assay [4], 1.73 µM. In addition, the inhibition at 2 µM was determined as 94.8% in assay [2], 64% in assay [3] and 68.3% in assay [4].
On to `Cc1cc(C)n(C2CN(CC(O)c3cc(F)ccc3F)C2)n1` (centres unmarked) [DDD01298957], for which, in assay [1], the “%Inh HepG2 @10uM” value is recorded as 6.16%. In assay [4], the IC50 was found to be 1.27 µM and the inhibition at 2 µM came to 74.5%.
In the case of `CCNC(=O)C(C)NC(=O)c1cnc(-c2ccc(C)cc2C)s1` (centres unmarked) [DDD01300473], the “%Inh HepG2 @10uM” value in assay [1] is recorded as 1.57%. Also, in assay [4], the IC50 was determined as 2.86 µM and the inhibition at 2 µM is 37%.
Turning to `Cc1nc2ccccc2nc1CN1CCCC1Cn1cccn1` (centres unmarked) [DDD01301355], the “%Inh HepG2 @10uM” value in assay [1] was 20.57%. Also, in assay [4], the IC50 was 8.56 µM and the inhibition at 2 µM was determined as 31%.
As for `CN(Cc1ncc(C(C)(C)C)o1)CC1CCCN1c1cccnn1` (centres unmarked) [DDD01301524], the “%Inh HepG2 @10uM” value in assay [1] is reported as 23.44%. Further, in assay [4], the IC50 was 5.73 µM and the inhibition at 2 µM came to 31.2%.
`CC(C)c1cc(NC(=O)c2ccc(C(=O)NC(C)(C)C)cc2)[nH]n1` [DDD01301645]: in assay [1], the “%Inh HepG2 @10uM” value is -4.05%. Further, in assay [4], the IC50 is 4.02 µM and the inhibition at 2 µM was 33.2%.
For `CCC(C)(C)NC(=O)CN(C)C(c1cccc(F)c1)c1ccccn1` (centres unmarked) [DDD01301778], the “%Inh HepG2 @10uM” value in assay [1] is 0.64%. In assay [4], the half-maximal inhibitory concentration (IC50) was found to be 6.7 µM and the inhibition at 2 µM was 30.8%.
`Cc1ccc(Cl)cc1N1CCC(CNC(=O)CCn2ccnc2)C1` (centres unmarked) [DDD01302767]: the “%Inh HepG2 @10uM” value in assay [1] is given as -10.10%. Moreover, in assay [4], the IC50 was 3.83 µM and the inhibition at 2 µM was 33.8%.
For the compound `COc1ccc(CNCC2CCN(CC(C)O)CC2)c2ccccc12` (centres unmarked) [DDD01302860], in assay [1], the “%Inh HepG2 @10uM” value is reported as 29.84%. In assay [4], the IC50 is 2.69 µM and the inhibition at 2 µM came out at 39.2%.
For the compound `Cc1cc(C)n(C2CN(CC(O)c3ccc4c(c3)OCO4)C2)n1` (centres unmarked) [DDD01303662], the “%Inh HepG2 @10uM” value in assay [1] is reported as -2.16%. Besides, in assay [4], the IC50 turned out to be 7.81 µM and the inhibition at 2 µM was found to be 40.2%.
`CC(C)c1nn(C)c(Cl)c1CNCC(O)c1cccc(F)c1.Cl` (centres unmarked) [DDD01304823]: the “%Inh HepG2 @10uM” value in assay [1] is reported as -10.30%. Also, in assay [4], the IC50 stood at 3.62 µM and the inhibition at 2 µM is 34.2%.
For the compound `Cc1nc(CN2CCCC(N(C)Cc3c(C)noc3C)C2)no1` (centres unmarked) [DDD01304956], in assay [1], the “%Inh HepG2 @10uM” value was 10.61%. Besides, in assay [4], the IC50 was 3.93 µM and the inhibition at 2 µM came out at 31.2%.
Consider `O=C1CCCCN1c1cccc(CNC2CCCC2)c1` [DDD01305031], for which the “%Inh HepG2 @10uM” value in assay [1] is -17.90%. In assay [4], the IC50 worked out at 6.03 µM and the inhibition at 2 µM worked out at 31.2%.
